Test results from publication PMC11149917, “Translational and Therapeutic Evaluation of RAS-GTP Inhibition by RMC-6236 in RAS-Driven Cancers” (Cancer Discovery, 2024).
Like-named read-outs stand apart in the source and are kept apart here.

Test: Mouse blood and tissue PK (LC/MS-MS)
Type: in vivo
Conditions: mouse, tumor, oral
Procedure: For single-dose PKPD study, mice were randomized and assigned into groups (n = 3/dose/time point). […] Blood and tissues, including the tumor, brain, colon, ear skin, and muscle, were harvested at indicated time points. […] The whole blood, tumor, brain, colon, and ear skin concentrations of RMC-6236 were determined using liquid chromatography–tandem mass spectrometry (LC/MS-MS) methods. […] After thorough mixing and centrifugation, the supernatant was diluted with water or directly analyzed on a Sciex 5500 or Sciex 6500+ triple quadrupole mass spectrometer equipped with an ACQUITY or Shimadzu UPLC system. […] Bioanalysis on blood and tissue samples from xenograft models was run at Pharmaron and Wuxi AppTec. Concentrations reported as below the quantification limit were treated as zero for PK analysis. PK parameters were calculated by noncompartmental analysis of the concentration–time profiles using Phoenix WinNonLin (version 8.3 Certara). Apparent terminal elimination half-life (t1/2) values were calculated as ln(2)/k, where k represents the terminal elimination rate constant. Area under the concentration–time curve (AUC) values were estimated using a linear trapezoidal method. AUClast values were calculated from the dosing time to the last quantifiable concentration. Maximum concentration (Cmax) was recorded as observed.

For `CCn1c(-c2cc(N3CCN(C)CC3)cnc2[C@H](C)OC)c2c3cc(ccc31)-c1csc(n1)C[C@H](NC(=O)[C@H]1C[C@@H]1C)C(=O)N1CCC[C@H](N1)C(=O)OCC(C)(C)C2` [RMC-6236], which concentration at 4 h (25 mg/kg, HPAC #4, 25 mg/kg, individual animals, read-out: RMC-6236 (nM) Tumor) is on record?
The concentration at 4 h was 4090 nM.

And the concentration at 8 h (25 mg/kg, HPAC #4, 25 mg/kg, 8h, individual animals, read-out: RMC-6236 (nM) Tumor)?
The concentration at 8 h was 4080 nM.

What about the concentration at 24 h (25 mg/kg, HPAC #4, 25 mg/kg, 24h, individual animals, read-out: RMC-6236 (nM) Tumor) of the same compound?
Its concentration at 24 h is 1260 nM.

What about the concentration at 8 h (25 mg/kg, KP-4, study KP-4 #3, 25 mg/kg, 8h, read-out: RMC-6236 (nM) Tumor) of the same compound?
Its concentration at 8 h is 3260 nM.

And the concentration at 24 h (25 mg/kg, KP-4, study KP-4 #3, 25 mg/kg, 24h, read-out: RMC-6236 (nM) Tumor)?
Its concentration at 24 h is 758 nM.

And the concentration at 8 h (25 mg/kg, KP-4, study KP-4 #4, 25 mg/kg, 8h, read-out: RMC-6236 (nM) Tumor)?
The concentration at 8 h was 3030 nM.

And the concentration at 24 h (25 mg/kg, KP-4, study KP-4 #4, 25 mg/kg, 24h, read-out: RMC-6236 (nM) Tumor)?
The concentration at 24 h was 840 nM.

What about the concentration at 48 h (25 mg/kg, KP-4, study KP-4 #4, 25 mg/kg, 48h, read-out: RMC-6236 (nM) Tumor) of the same compound?
Its concentration at 48 h is 312 nM.

What about the concentration at 4 h (25 mg/kg, KP-4, study KP-4 #5, 25 mg/kg, read-out: RMC-6236 (nM) Tumor) of the same compound?
The concentration at 4 h was 2460 nM.

What about the concentration at 24 h (25 mg/kg, KP-4, study KP-4 #5, 25 mg/kg, 24h, read-out: RMC-6236 (nM) Tumor) of the same compound?
Its concentration at 24 h is 859 nM.

And the concentration at 48 h (25 mg/kg, KP-4, study KP-4 #5, 25 mg/kg, 48h, read-out: RMC-6236 (nM) Tumor)?
The concentration at 48 h was 281 nM.

And the concentration at 8 h (25 mg/kg, KP-4, study KP-4 #6, 25 mg/kg, 8h, read-out: RMC-6236 (nM) Tumor)?
The concentration at 8 h was 4160 nM.

What about the concentration at 24 h (25 mg/kg, KP-4, study KP-4 #6, 25 mg/kg, 24h, read-out: RMC-6236 (nM) Tumor) of the same compound?
The concentration at 24 h was 1500 nM.

What about the concentration at 48 h (25 mg/kg, KP-4, study KP-4 #6, 25 mg/kg, 48h, read-out: RMC-6236 (nM) Tumor) of the same compound?
Its concentration at 48 h is 739 nM.

What about the concentration at 1 h (25 mg/kg, Model Development Dataset, 25mg/kg_study8, read-out: Tumor Concentration) of the same compound?
Its concentration at 1 h is 457 nM.

What about the concentration at 2 h (25 mg/kg, Model Development Dataset, 25mg/kg_study8, 2 h, read-out: Tumor Concentration) of the same compound?
The concentration at 2 h was 1530 nM.

What about the concentration at 8 h (25 mg/kg, Model Development Dataset, 25mg/kg_study8, 8 h, read-out: Tumor Concentration) of the same compound?
The concentration at 8 h was 2320 nM.

And the concentration at 24 h (25 mg/kg, Model Development Dataset, 25mg/kg_study8, 24 h, read-out: Tumor Concentration)?
The concentration at 24 h was 995 nM.

And the concentration at 240 h (25 mg/kg, Model Development Dataset, 25mg/kg_study8r (doses every 24 h, 0-[…]), read-out: Tumor Concentration)?
Its concentration at 240 h is 410 nM.

What about the concentration at 1 h (25 mg/kg, Model Validation Dataset, 25mg/kg_study6, read-out: Tumor Concentration) of the same compound?
The concentration at 1 h was 358 nM.

And the concentration at 8 h (25 mg/kg, Model Validation Dataset, 25mg/kg_study6, 8 h, read-out: Tumor Concentration)?
Its concentration at 8 h is 2570 nM.

And the concentration at 24 h (25 mg/kg, Model Validation Dataset, 25mg/kg_study6, 24 h, read-out: Tumor Concentration)?
The concentration at 24 h was 890 nM.

What about the concentration at 48 h (25 mg/kg, Model Validation Dataset, 25mg/kg_study6, 48 h, read-out: Tumor Concentration) of the same compound?
Its concentration at 48 h is 690 nM.

And the concentration at 72 h (25 mg/kg, Model Validation Dataset, 25mg/kg_study6, 72 h)?
Its concentration at 72 h is 433 nM.

What about the concentration at 8 h (25 mg/kg, NCI-H441 xenograft tumor, study NCI-H441#6, 25 mg/kg, 8h, read-out: RMC-6236 (nM) Tumor) of the same compound?
Its concentration at 8 h is 2380 nM.

And the concentration at 24 h (25 mg/kg, NCI-H441 xenograft tumor, study NCI-H441#6, 25 mg/kg, 24h, read-out: RMC-6236 (nM) Tumor)?
Its concentration at 24 h is 989 nM.

What about the concentration at 48 h (25 mg/kg, NCI-H441 xenograft tumor, study NCI-H441#6, 25 mg/kg, 48h, read-out: RMC-6236 (nM) Tumor) of the same compound?
The concentration at 48 h was 641 nM.

What about the concentration at 8 h (25 mg/kg, NCI-H441 xenograft tumor, study NCI-H441#8, 25 mg/kg, 8h, read-out: RMC-6236 (nM) Tumor) of the same compound?
The concentration at 8 h was 2740 nM.

What about the concentration at 24 h (25 mg/kg, NCI-H441 xenograft tumor, study NCI-H441#8, 25 mg/kg, 24h, read-out: RMC-6236 (nM) Tumor) of the same compound?
Its concentration at 24 h is 1080 nM.

And the concentration at 4 h (25 mg/kg, sheet colon, KP-4, KP-4 #5, 25 mg/kg, read-out: RMC-6236 (nM) Tumor)?
Its concentration at 4 h is 5860 nM.

What about the concentration at 24 h (40 mg/kg, KP-4, study KP-4 #4, 40 mg/kg, 24h, read-out: RMC-6236 (nM) Tumor) of the same compound?
Its concentration at 24 h is 1620 nM.

What about the concentration at 48 h (40 mg/kg, KP-4, study KP-4 #4, 40 mg/kg, 48h, read-out: RMC-6236 (nM) Tumor) of the same compound?
Its concentration at 48 h is 661 nM.

And the concentration at 1 h (40 mg/kg, Model Development Dataset, 40mg/kg_study8, read-out: Tumor Concentration)?
The concentration at 1 h was 947 nM.

And the concentration at 2 h (40 mg/kg, Model Development Dataset, 40mg/kg_study8, 2 h, read-out: Tumor Concentration)?
Its concentration at 2 h is 3090 nM.

And the concentration at 8 h (40 mg/kg, Model Development Dataset, 40mg/kg_study8, 8 h, read-out: Tumor Concentration)?
The concentration at 8 h was 3380 nM.

And the concentration at 24 h (40 mg/kg, Model Development Dataset, 40mg/kg_study8, 24 h, read-out: Tumor Concentration)?
The concentration at 24 h was 1810 nM.

What about the concentration at 240 h (40 mg/kg, Model Development Dataset, 40mg/kg_study8r (doses every 24 h, 0-[…]), read-out: Tumor Concentration) of the same compound?
Its concentration at 240 h is 876 nM.

And the concentration at 2 h (40 mg/kg, NCI-H441 xenograft tumor, study NCI-H441#8, 40 mg/kg, 2h, read-out: RMC-6236 (nM) Tumor)?
Its concentration at 2 h is 3260 nM.

What about the concentration at 8 h (40 mg/kg, NCI-H441 xenograft tumor, study NCI-H441#8, 40 mg/kg, 8h, read-out: RMC-6236 (nM) Tumor) of the same compound?
Its concentration at 8 h is 2820 nM.

What about the concentration at 4 h (50 mg/kg, HPAC #3, 50 mg/kg, individual animals, read-out: RMC-6236 (nM) Tumor) of the same compound?
The concentration at 4 h was 4620 nM.

What about the concentration at 8 h (50 mg/kg, HPAC #3, 50 mg/kg, 8h, individual animals, read-out: RMC-6236 (nM) Tumor) of the same compound?
The concentration at 8 h was 6090 nM.

What about the concentration at 24 h (50 mg/kg, HPAC #3, 50 mg/kg, 24h, individual animals, read-out: RMC-6236 (nM) Tumor) of the same compound?
The concentration at 24 h was 3810 nM.

And the concentration at 48 h (50 mg/kg, HPAC #3, 50 mg/kg, 48h, individual animals, read-out: RMC-6236 (nM) Tumor)?
Its concentration at 48 h is 1440 nM.

And the concentration at 8 h (50 mg/kg, KP-4, study KP-4 #3, 50 mg/kg, 8h, read-out: RMC-6236 (nM) Tumor)?
Its concentration at 8 h is 5580 nM.

And the concentration at 24 h (50 mg/kg, KP-4, study KP-4 #3, 50 mg/kg, 24h, read-out: RMC-6236 (nM) Tumor)?
Its concentration at 24 h is 2070 nM.

What about the concentration at 48 h (50 mg/kg, KP-4, study KP-4 #3, 50 mg/kg, 48h, read-out: RMC-6236 (nM) Tumor) of the same compound?
The concentration at 48 h was 489 nM.

And the concentration at 1 h (50 mg/kg, Model Validation Dataset, 50mg/kg_study6, read-out: Tumor Concentration)?
Its concentration at 1 h is 1310 nM.

And the concentration at 8 h (50 mg/kg, Model Validation Dataset, 50mg/kg_study6, 8 h, read-out: Tumor Concentration)?
Its concentration at 8 h is 4800 nM.
